These results are taken from patent US11952362B2, “Compositions and methods for treating epigenetic disease” (The Regents of the University of California, priority 2018, dated 2024).

One experiment deals with TNBS colitis. The experiment is described as follows: TNBS colitis in mice. It is filed as in vivo. As to conditions: for overall score: overall efficacy. How it is done:
Male C57BL/6J mice 8-10 weeks old were purchased from The Jackson Laboratory (Sacramento, CA, USA). Mice were housed 4 per cage, maintained on a 12:12 hour light-dark cycle and given access to food and water ad libitum. Following an acclimatization period of 3 to 5 days, trinitrobenzene sulfonic acid (TNBS, Millipore Sigma, St. Louis, MO, USA) colitis was induced by intracolonic (i.c.) injection of 0.05 ml TNBS solution (5 mg in 40% ethanol) via a polyethylene cannula (BD Intramedic PE-20 tubing, Thermo Fisher Scientific, Santa Clara, CA, USA) inserted 3.5 cm from the anal verge under isoflurane anesthesia (4% in O2 induction, 2.5-3% maintenance). Control mice received an injection of 40% ethanol (0.05 ml, i.c.). To test the effectiveness of the HDAC analogs, mice received a daily injection (0.1 ml, i.c.) of a selective HDAC class II inhibitor analog (50 mg/kg MJK001-013) or vehicle (5% dimethyl sulfoxide, Millipore Sigma) beginning one day prior to TNBS colitis induction (day −1) for a period of 5 days. Separate groups of mice received HDAC inhibitors or vehicle administered by daily oral gavage (50 mg/kg, 0.25 ml, p.o.). All analogs tested were first dissolved in dimethyl sulfoxide (DMSO) with rapid vortexing and subsequent dilution to 5% in sterile phosphate buffered saline (PBS; Gibco, Thermo Fisher Scientific). Vehicle contained 5% DMSO in sterile PBS. Prior to use, all solids were stored in amber (light-blocking) storage vials at 4° C. On the first day of administration, stock solutions were prepared, aliquoted and stored at −20° C. for daily use. Upon thawing, each aliquot was vortexed prior to intracolonic injection (via a polyethylene cannula) or oral gavage (20 ga×38 mm, Instech, Thermo Fisher Scientific). Following all in vivo experiments, animals were euthanized on day 4 by CO2 inhalation and cervical dislocation and the distal colons removed for further study.
Disease severity was assessed by weight loss and measurement of colon length and determination of clinical and histological damage scores on day 4 of the protocol. Briefly, clinical scores were calculated on a scale of 0-3 for degree of weight loss, bleeding, stool consistency and presence of rectal prolapse. Sections of colon (5 μm) fixed in 10% formalin, paraffin-embedded and stained with hematoxylin and eosin (H&E) were used for histological scoring using an AxioImager. Z1 microscope equipped with AxioVision software version 4.6 (Zeiss, Jena, Germany). Scoring was performed by two independent investigators blinded to the treatment conditions and resulting scores averaged. Scores were assigned based on the degree of crypt damage (0-4), polymorphonuclear neutrophil (PMN) infiltrate (0-3), erosion (0-3), and edema (0-3).
Statistical analyses were performed using GraphPad Prism (Version 5.0a; GraphPad Software, La Jolla, CA, USA). Differences were determined by unpaired t-test, 1-way analysis of variance, or a 2-way analysis of variance with Tukey's post-test. A p value <0.05 was considered to be statistically significant. Data presented are means±SEM for n animals.
Novel chemical HDAC inhibitors were developed aiming to target specific isoforms of the HDAC Class IIA members. Overall, as shown above, compounds have been synthesized, named MJK-001, -002, -003, -004, -005, -006, -007, -008, -009, -010, -011, -012 & -013. The effect of selective HDAC class IIA isoform inhibition during development of colitis in mice in vivo during TNBS administration was assessed. This mouse model is known to recapitulate many features of human Crohn's Disease. Mice received either an intracolonic (i.c.) injection or oral delivery (p.o.) of the MJK compounds once daily for a period of 5 days and health status, weight loss, and disease activity were monitored. Mice (male C57BL/6J, 8-10 wks old) are weighed and monitored daily. On the final day, blood, feces, and colonic samples for RNA, protein and histology are collected for downstream analysis. […]

For a further experiment, the target named is T1, HDAC9 (Homo sapiens, UniProt Q9UKV0).
T1 construct: purchased BPS Bioscience 50069
The experiment is described as follows: Fluorogenic HDAC9 activity assay. It is filed as biochemical. As to conditions: fluorogenic assay kit, in words. The procedure: To measure the effects of MJK-001, -004, -006 and -008 on HDAC4 & 9 activity fluorogenic HDAC9 (#50069) and HDAC4 (#50064) assay kits (BPS Bioscience) were used. Briefly, these assays consist of two steps; in the first one the HDAC fluorometric substrate containing an acetylated lysine side chain is incubated with purified HDAC9. In the second step, the deacetylation sensitizes the substrate so subsequent treatment with the lysine developer produces a fluorophore that was measured by a fluorescence reader.

Setting [1] is: i.c. administration, 50 mg/kg daily for 5 days, day 4, vs vehicle-treated mice, hydrochloride, 50 mg/kg.
Setting [2] is: i.c. administration, 50 mg/kg daily for 5 days, day 4, vs vehicle-treated mice, listed as MJK-008, hydrochloride, 50 mg/kg.
The mark [3] stands for this setting: oral administration (p.o., 50 mg/kg daily).
Setting [4] is: i.c. administration, 50 mg/kg daily for 5 days, day 4, vs vehicle-treated mice, 50 mg/kg.
The mark [5] stands for this setting: i.c. administration, 50 mg/kg daily for 5 days, day 4, vs vehicle-treated mice, listed as MJK-001, 50 mg/kg.
[6] abbreviates: i.c. administration, 50 mg/kg daily for 5 days, day 4, vs vehicle-treated mice, listed as MJK-004, 50 mg/kg.

Entries after “also recorded” stand apart in the source; their conditions may differ.

T1 sequence (Q9UKV0 whole entry): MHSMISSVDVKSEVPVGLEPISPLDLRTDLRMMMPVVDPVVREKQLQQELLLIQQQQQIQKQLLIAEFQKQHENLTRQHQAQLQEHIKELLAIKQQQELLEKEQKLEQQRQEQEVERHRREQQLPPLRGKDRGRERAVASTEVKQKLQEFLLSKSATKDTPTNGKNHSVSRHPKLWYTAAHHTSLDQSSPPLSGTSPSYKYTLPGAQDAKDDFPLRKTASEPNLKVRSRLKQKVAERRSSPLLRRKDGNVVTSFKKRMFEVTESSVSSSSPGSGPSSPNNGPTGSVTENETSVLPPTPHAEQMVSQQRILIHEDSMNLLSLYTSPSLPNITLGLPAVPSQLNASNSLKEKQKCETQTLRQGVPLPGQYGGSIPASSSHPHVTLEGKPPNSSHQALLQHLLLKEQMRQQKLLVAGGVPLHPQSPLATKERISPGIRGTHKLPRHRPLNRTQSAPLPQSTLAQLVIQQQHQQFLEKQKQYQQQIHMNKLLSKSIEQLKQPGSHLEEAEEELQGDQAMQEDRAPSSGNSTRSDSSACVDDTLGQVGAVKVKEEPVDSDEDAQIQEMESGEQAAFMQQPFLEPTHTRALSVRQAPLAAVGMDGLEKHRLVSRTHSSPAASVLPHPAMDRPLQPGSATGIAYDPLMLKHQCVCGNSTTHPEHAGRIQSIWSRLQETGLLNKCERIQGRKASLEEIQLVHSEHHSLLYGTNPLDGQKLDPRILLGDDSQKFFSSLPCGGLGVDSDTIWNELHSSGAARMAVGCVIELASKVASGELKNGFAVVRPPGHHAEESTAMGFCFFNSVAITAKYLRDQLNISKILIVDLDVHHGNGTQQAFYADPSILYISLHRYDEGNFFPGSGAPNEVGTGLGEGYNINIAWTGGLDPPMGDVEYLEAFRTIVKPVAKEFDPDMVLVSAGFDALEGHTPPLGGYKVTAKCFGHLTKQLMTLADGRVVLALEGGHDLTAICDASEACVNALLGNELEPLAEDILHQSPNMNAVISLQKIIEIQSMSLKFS

Regarding `Cl.Cn1c(/C=C/C(=O)NO)ccc1/C=C/C(=O)c1cccnc1` [MJK008, (E)-N-Hydroxy-3-(1-methyl-5-((E)-3-oxo-3-(pyridin-3-yl)prop-1-en-1-yl)-1H-pyrrol-2-yl)ac-rylamide hydrochloride], in the experiment with TNBS colitis (setting [1]), the clinical score result is recorded as “♦♦”, the colon length result is recorded as “♦” and the histological score result is “♦♦♦”. Also, in the experiment on TNBS colitis (setting [2]), the clinical score result was “decreasing the clinical and histological score”; the colon length result was “significant effect in preserving colon length”; the histological score result is “decreasing the clinical and histological score”. Moreover, the overall score entry with TNBS colitis (i.c. administration, hydrochloride) is “substantial effect on suppressing TNBS-induced colitis”. Moreover, in the experiment on TNBS colitis (setting [3]), the clinical score result is on record as “highly efficient in reducing the clinical score”, the colon length entry is given as “preserving colon length” and the histology score result is “decreasing the histology score”. For the same compound, the “HDAC9 activity / specificity” value at HDAC9 (hydrochloride) is on record as “high specificity for the HDAC9 isoform; also recorded: significantly increased specificity of targeting the HDAC9 isoform”.

As for `Cn1c(/C=C/C(=O)NO)ccc1/C=C/C(=O)c1cccc(F)c1` [MJK001, (E)-3-(5-((E)-3-(3-Fluorophenyl)-3-oxoprop-1-en-1-yl)-1-methyl-1H-pyrrol-2-yl)-N-hydro-xyacrylamide], the histological score result in the experiment with TNBS colitis (i.c. administration, 50 mg/kg daily for 5 days, day 4, vs vehicle-treated mice) is recorded as “♦♦”. Also, in the experiment on TNBS colitis (setting [4]), the clinical score entry is on record as “♦♦” and the colon length entry is “♦♦”. Moreover, in the experiment with TNBS colitis (setting [5]), the clinical score entry is “statistical significance in the reduction of the clinical score” and the colon length entry is given as “increase of colon length”. The “HDAC9 activity / specificity” value at HDAC9 is recorded as “partially blocks”.

As for `Cn1c(/C=C/C(=O)NO)ccc1/C=C/C(=O)c1cccs1` [MJK004, (E)-N-hydroxy-3-(1-methyl-5-((E)-3-oxo-3-(thiophen-2-yl)prop-1-en-1-yl)-1H-pyrrol-2-yl)acrylamide], the clinical score result is “♦♦” with TNBS colitis (setting [4]) and “reduction in clinical scoring” in the experiment with TNBS colitis (setting [6]). Also, the figures for the colon length result in the experiment on TNBS colitis (setting [4]) and with TNBS colitis (setting [6]) were “ns” and “did not alter colon length”, respectively. For the same compound, the “HDAC9 activity / specificity” value at HDAC9 was “very low activity against HDAC9”.

Take `Cn1c(/C=C/C(=O)NO)ccc1/C=C/C(=O)c1cccnc1` [MJK006, (E)-N-hydroxy-3-(1-methyl-5-((E)-3-oxo-3-(pyridin-3-yl)prop-1-en-1-yl)-1H-pyrrol-2-yl)acrylamide]: in the experiment with TNBS colitis (setting [4]), the clinical score result was “♦♦”, the colon length result is “♦♦” and the histological score entry was “♦♦♦”. In addition, in the experiment on TNBS colitis (i.c. administration, 50 mg/kg daily for 5 days, day 4, vs vehicle-treated mice, listed as MJK-006, 50 mg/kg), the histological score entry is “significant differences”. Moreover, in the experiment on TNBS colitis (i.c. administration), the overall score entry was “substantial effect on suppressing TNBS-induced colitis”. The “HDAC9 activity / specificity” value on HDAC9 was “high specificity for the HDAC9 isoform; also recorded: significantly increased specificity of targeting the HDAC9 isoform”.
